Assay results as given in patent publication US11672466B2, “System and method for modeling brain dynamics in normal and diseased states” (THE REGENTS OF THE UNIVERSITY OF CALIFORNIA, priority 2013, dated 2023).

Legend:
[1] = system: MES, PTZ and amygdala-kindling seizure models; conditions: systemic PTZ; cited from earlier work
[2] = system: partial, tonic-clonic and generalized seizures; conditions: clinically; cited from earlier work
[3] = system: amyloid-P-induced neurodegenerative mechanisms; conditions: previous in vitro studies; cited from earlier work
[4] = after oral administration; cited from earlier work
APPL/S mice [5] = test: novel object recognition; format: in vivo, mouse
APPL/S mice [6] = conditions: basal forebrain and hippocampus; cited from earlier work
APPL/S mice [7] = conditions: APPL/S transgenic AD mouse model; cited from earlier work
APPL/S mice [8] = test: choline acetyltransferase immunostaining of cholinergic neurites in basal forebrain; format: in vivo, mouse; conditions: basal forebrain sections
Method: (§1) FIG. 30A is a photomicrograph of APP immunolabeling for dystrophic neurites (left) and Thioflavin S staining for amyloid plaques (right) in hippocampus of APPL/S mice given vehicle or LM11A-31 as indicated. Scale bars=25 μm. FIG. 30B is a photomicrograph of choline acetyltransferase-immunostained basal forebrain sections. Treatment of APPL/S mice with LM11A-31 was associated with increased length, volume, and branching of cholinergic neurites. […] Statistical significance was determined using ANOVA and post-hoc Student-Neuman-Keuls testing.

APP/PS1 mice [9] = conditions: slices derived from AD model mice; cited from earlier work
[10] = system: APPL/S transgenic AD mouse model; conditions: cited from earlier work
APPL/S mice [11] = test: APP immunolabeling for dystrophic neurites, Thioflavin S staining for amyloid plaques in hippocampus; format: in vivo; conditions: transgenic mouse model of AD, APPL/S mice given vehicle or LM11A-31
Method: as §1

APPL/S mice [12] = conditions: APPL/S transgenic AD mouse model; cited from earlier work; remark: listed apart in the source
APP/PS1 mice [13] = test: LTP / synaptic function in hippocampal slice preparations from AD model mice; parameters: species or system mouse; conditions: hippocampus
PTZ seizures = conditions: prior studies; cited from earlier work

With `CC[C@@H](C(N)=O)N1CCCC1=O` [LEV, levetiracetam] as the compound, how does the “efficacy in conventional epilepsy models” value [1] read?
Its value is “efficacy only in amygdala-kindling”.

What about the “clinical efficacy by seizure type” value [2] of the same compound?
The value was “efficacy for partial, tonic-clonic and non-convulsive generalized seizures”.

For `CC[C@H](C)[C@H](N)C(=O)NCCN1CCOCC1` [LM11A-31], which amyloid-P-induced neurodegenerative mechanisms [3] is on record?
The amyloid-P-induced neurodegenerative mechanisms was “prevented”.

And the brain concentrations [4]?
Its brain concentrations is “reach brain concentrations known to provide neuroprotection in vitro”.

And the “crossing of the blood brain barrier” value [4]?
The value was “cross the blood brain barrier”.

And the object recognition deficits (APPL/S mice [5])?
Its object recognition deficits is “prevented”.

What about the cholinergic neuritic dystrophy (APPL/S mice [6]) of the same compound?
The cholinergic neuritic dystrophy was “prevented”.

What about the “deficits in novel object recognition” value (APPL/S mice [7]) of the same compound?
Its value is “prevented deficits”.

What about the “length, volume, and branching of cholinergic neurites” value (APPL/S mice [8]) of the same compound?
The value was “increased”.

What about the “synaptic impairment in hippocampal slice preparations” value (APP/PS1 mice [9]) of the same compound?
The value was “reversed”.

And the “deficits in Y-maze performance” value [10]?
Its value is “prevented deficits”.

What about the “dystrophic neurites and amyloid plaque formation in the hippocampus” value (APPL/S mice [11]) of the same compound?
The value was “rescued significantly”.

And the amyloid levels (APPL/S mice [12])?
The amyloid levels was “without affecting”.

And the LTP (APP/PS1 mice [13])?
The LTP was “normalizes”.

Which “clinical efficacy by seizure type” value [2] does the source give for `O=C1NC(=O)C(c2ccccc2)(c2ccccc2)N1` [PHT, phenytoin] here?
The value was “efficacy in partial and generalized tonic-clonic seizures”.

For `O=C1Nc2ccc(Cl)cc2C(c2ccccc2Cl)=NC1O` (stereo not drawn) [lorazepam], which “efficacy in conventional epilepsy models” value [1] is on record?
The value was “efficacy in all three conventional models”.

What about the “clinical efficacy by seizure type” value [2] of the same compound?
The value was “efficacy in partial and generalized tonic-clonic seizures”.

For `CC[C@@H](CO)NC(=O)[C@@H]1C=C2c3cccc4c3c(cn4C)C[C@H]2N(C)C1` [methylsergide], which “effect on the beneficial effect of ANT electrical stimulation to raise threshold for PTZ seizures” value (PTZ seizures) is on record?
Its value is “largely blocked”.
